Source: US12202805B2, “Process for preparing (5S)-{[2-(4-carboxyphenyl)ethyl] |2-(2-{|3-chloro-4'-(trifluoromethyl)biphenyl-4-yl]methoxy}phenyl)ethyl]aminol-5,6,7,8-tetrahydroquinoline-2-carboxylic acid and its crystalline forms for use as pharmaceutically active compound” (Bayer Aktiengesellschaft, priority 2021, dated 2025)

Columns and labels:
[1] = Determination of thermal stability (solid, 7 days at 90° C., HPLC); assay type: physicochemical; details: HPLC peak areas
Protocol: Determination of thermal stability of comparative example 11:
0.3 mg of the comparative example 11 were solved in 0.1 ml dimethylsulfoxide and 0.4 ml acetonitrile. Then 1.0 ml water was added. For complete dissolution the HPLC vial was shaken and sonicated. This solution was immediately analyzed by HPLC (reference at t0). 0.3 mg of the test compound was weighed into another HPLC vial. The vial was capped and stored for 7 days in a heating block at 90° C.
After this time the vial was decapped and 0.1 ml dimethylsulfoxide and 0.4 ml acetonitrile were added to the stressed compound. Then 1.0 ml water was added. For complete dissolution the HPLC vial was shaken and sonicated. The sample was analyzed by HPLC (sample after 1 week). The peak areas in percentage are used for quantification.

[2] = Filter experiments for deposited lung dose in the PAH minipig model and prediction of human dose; assay type: in vivo
Protocol: The anesthetized thromboxane A2 challenged PAH-minipig model (see experimental part E-1) is considered to be the most relevant and sensitive model for the prediction of the human minimal effective and effective doses (MED, ED). To determine effective LDs, experiments were repeated with the difference that absorbing filters were attached at the end of the tubes to determine the deposited lung dose. […] Assuming a minimal effective ND of 3 μg/kg (5% reduction in PAP) the minimal effective deposited LD is considered as 0.15 μg/kg.
The nominal doses of 3, 10, 30 and 100 μg/kg of the minipig model were multiplied by the filter deposition factor of 5% resulting in 0.15, 0.5, 1.5 and 5 μg/kg lung deposited doses in the minipig. These values were multiplied by 60 kg to achieve the lung dose in humans. Thus, the FPD reflecting the PAP reduction for a 60 kg human are calculated to be 9, 30, 90 and 300 μg.
Thus, via a direct up-scaling from minipig, the predictive MED (5% PAP reduction) for a human based on a 60 kg body weight is calculated to be 9 μg LDD, not considering protein binding within the respiratory tract. As a surrogate for unbound concentrations, which are the likely active concentrations in the lung, we considered respective differences in fractions unbound in plasma of minipig and human. […]

[3] = Protein binding via Transil assay, human plasma; assay type: in vitro ADME
Protocol: (§1) Protein Binding of Comparative Example 11 and Comparative Example 1 was Analyzed Via Transil Assay, Described Below.
(§2) The distribution of a test substance between Transil® (phosphatidylcholine lipid bilayers immobilized on silica beads) and plasma is a characteristic feature of any pharmaceutical compound and is dependent on its extent of binding to plasma proteins. By comparing the distribution between Transil® and buffer with the distribution between Transil® and plasma of any species of interest, the unbound fraction in the plasma of the respective animal species can be calculated in vitro. The respective plasma and buffer concentrations were determined via a radioactivity analysis. A detailed description of the method and its validation was published by Schuhmacher et al. (2).

[4] = Protein binding via Transil assay, dog plasma; assay type: in vitro ADME
Protocol: as §1, §2

[5] = tested on: thromboxane and hypoxia challenged rats, pigs, and dogs; test: Disease relevant animal models (thromboxane and hypoxia challenged), inhaled application, PAP; assay type: in vivo
[6] = tested on: unilateral ventilated minipig model; test: Unilateral ventilated minipig model as a proxy of VQ-mismatch; assay type: in vivo; details: inhaled application
PAH-minipig model = PAH-minipig model on top of PAH standard-of-care; assay type: in vivo; details: inhaled; SoC e.g. bosentan, sildenafil, Ilomedin, riociguat
[7] = tested on: acetylcholine [ACh] rat model; test: Acetylcholine [ACh] rat model (bronchodilation); details: in vivo
[8] = Storage stability of pseudopolymorphic forms (XRPD); assay type: physicochemical; details: for Result (form after storage): monohydrate II
[9] = Micronization in spiral jet mill: solid form (XRPD) and particle size distribution; assay type: physicochemical; details: for PSD X10 / PSD X50 / PSD X90: dry measurement 4 bar
Source text: For inhalative drug products it is important to guarantee a homogeneous drug substance with defined particle size <5 μm to secure delivery to the deep lung compartments. This technical requirement can be afforded by micronization of the drug substance particles.
Generally no amorphization even partial nor form conversion should happen during the necessary micronization step.
The corresponding batches (examples 8a-8 d) were micronized using a 50 mm spiral jet mill and pressurized nitrogen with the following parameters (see table 16b).
The corresponding batches were micronized using a 100 mm spiral jet mill and pressurized nitrogen with the following parameters (see table 16c).
All measurements cited in the above tables were obtained by laser diffraction with dry dispersion using compressed air. Measuring in aqueous suspension with surfactants may lead to smaller particle sizes (×90 up to 1 μm smaller).

[10] = Protein binding via Transil assay, minipig plasma; assay type: in vitro ADME; details: read-out: plasma fu (fraction unbound)
Protocol: as §1, §2

[11] = after micronization, 100 mm spiral jet mill, monohydrate I as starting material
[12] = PTFE coated jet mill, 25° C., 4.5/4.0 bar, 4.5 g/min
[13] = VA jet mill 50 mm, 25° C., 4.5/4.0 bar, 4.5 g/min
[14] = VA jet mill (low stress conditions), −65° C., 4.5/3.0 bar, 10.6 g/min
[15] = VA jet mill, −65° C., 4.5/4.0 bar, 5.5 g/min

Structure (SMILES): O=C(O)c1ccc(CCN(CCc2ccccc2OCc2ccc(-c3ccc(C(F)(F)F)cc3)cc2Cl)[C@H]2CCCc3nc(C(=O)O)ccc32)cc1 [comparative example 11, (5S)-5-{[2-(4-carboxyphenyl)ethyl][2-(2-{[3-chloro-4′-(trifluoromethyl)[biphenyl]-4-yl]methoxy}phenyl)ethyl]amino}-5,6,7,8-tetrahydroquinoline-2-carboxylic acid]
- thermal stability [1]: stable
- minimal effective lung deposited dose for a human patient of 60 kg body weight ([2]; with or without effect of different protein binding): 9 to 41 µg
- free fraction, times lower than comparative example 1 [3]: 2 times
- fraction unbound, times lower than comparative example 1 [4]: 10 times
- effect on elevated PAP [5]: selectively decreased elevated PAP
- effect on PAP and oxygenation [6]: lowered PAP without negative effects on oxygenation
- effect on elevated PAP on top of PAH standard-of-care (PAH-minipig model): selectively decreased elevated PAP
- effect on ventilation [7]: bronchodilatory effect

Structure (SMILES): O=C(O)c1ccc(CCN(CCc2ccccc2OCc2ccc(-c3ccc(C(F)(F)F)cc3)cc2Cl)[C@H]2CCCc3nc(C(=O)O)ccc32)cc1 [example 4, (5S)—{[2-(4-Carboxyphenyl)ethyl][2-(2-{[3-chloro-4′-(trifluoromethyl)biphenyl-4-yl]methoxy}phenyl)-ethyl]amino}-5,6,7,8-tetrahydroquinoline-2-carboxylic acid as Monohydrate I]
- storage stability ([8]; under the storage conditions of Table 15): stable
- stability under micronization conditions ([9]; 100 mm spiral jet mill, pressurized nitrogen): stable
- PSD X10 [9, 11]: X10: 0.7 μm,
- PSD X50 [9, 11]: X50: 2.1 μm,
- PSD X90 [9, 11]: X90: 6.1 μm

Structure (SMILES): O=C(O)c1ccc(CCN(CCc2ccccc2OCc2ccc(-c3ccc(C(F)(F)F)cc3)cc2Cl)[C@H]2CCCc3nc(C(=O)O)ccc32)cc1 [example 2, (5S)—{[2-(4-Carboxyphenyl)ethyl][2-(2-{[3-chloro-4′-(trifluoromethyl)biphenyl-4-yl]methoxy}phenyl)-ethyl]amino}-5,6,7,8-tetrahydroquinoline-2-carboxylic acid as Monohydrate II]
- Result (form after storage) ([8]; brown glass closed with paper filter disc, 40° C., 75% relative humidity): monohydrate I
- Result (form after storage) ([8]; brown glass snap on closure, 25° C., 60% relative humidity, one, three and six months): monohydrate II
- Result (form after storage) ([8]; polyethylene, 25° C., 60% relative humidity): monohydrate I
- Result (form after storage) ([8]; polyethylene, 40° C., 75% relative humidity): monohydrate I
- PSD X10 [9, 12]: X10: 0.7 μm,
- PSD X50 [9, 12]: X50: 1.9 μm,
- PSD X90 [9, 12]: X90: 5.0 μm
- PSD X10 [9, 13]: X10: 0.4 μm,
- PSD X50 [9, 13]: X50: 1.7 μm,
- PSD X90 [9, 13]: X90: 4.2 μm
- PSD X10 [9, 14]: X10: 0.5 μm,
- PSD X50 [9, 14]: X50: 2.3 μm,
- PSD X90 [9, 14]: X90: 9.6 μm
- PSD X10 [9, 15]: X10: 0.4 μm,
- PSD X50 [9, 15]: X50: 1.8 μm,
- PSD X90 [9, 15]: X90: 4.8 μm
- XRPD form after micronization ([9]; batch of example 2): monohydrate II with partial amorphization
- ratio of fraction unbound minipig/human ([2]; plasma): 4.55
- fraction unbound ([3]; read-out: plasma fu (fraction unbound)): 0.000764
- fraction unbound [10]: 0.00348
